Values joined by “and” are separate entries in the source; they are usually repeats but may differ in a detail not shown here. Equal entries are not always repeated.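 Growth conditions: 96-well plates. Treatment: test compound, 48 hours, 5 concentrations. Analysis: linear interpolation between bracketing concentrations; unreached endpoints set to highest concentration. GI50: concentration for 50% inhibition of growth. TGI is the concentration that stops growth completely.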 Bounds are passed on as bounds.

The source of these data is PubChem BioAssay (NCI).

Among the test systems are SK-MEL-5 melanoma; M14 melanoma; KM12 colon; RPMI-8226 leukemia; UACC-62 melanoma; COLO 205 colon; EKVX NSCLC; SNB-75 CNS; NCI-H460 lung; HCC-2998 colon.
What all share (assay): NCI anticancer screen, dose series, 48 h

As to `CC(C)CCCC(C)[C@H]1CCC2[C@@H]3CCC4Nc5nocc5C[C@]4(C)C3CC[C@@]21C` (some centres undefined), the TGI in the assay on SK-MEL-5 melanoma turned out to be 29.2 µM; with M14 melanoma, 41.8 µM; in the assay with KM12 colon, 38.4 µM; with RPMI-8226 leukemia it was 69.3 µM; with UACC-62 melanoma, 40.7 µM; in the assay on COLO 205 colon, 20.4 µM. In addition, the TGI with EKVX NSCLC was 31.3 µM; in the assay on SNB-75 CNS it was 33.8 µM; with NCI-H460 lung it was 47.1 µM; with HCC-2998 colon it was 29.5 µM.
Turning to `COc1cccc2c1C(=O)c1c(O)c3c(c(O)c1C2=O)CC(O)(C(O)CO)CC3OC1CC(N2CCOCC2)C(O)C(C)O1` (centres undefined), the GI50 with SK-MEL-5 melanoma was 0.017 µM; in the assay on M14 melanoma, 0.0158 µM; with RPMI-8226 leukemia, 0.0191 µM; in the assay with COLO 205 colon, 0.0278 µM; in the assay on EKVX NSCLC it was 0.0304 µM. Further, the TGI is 0.00553 µM and 0.0332 µM in the assay on SK-MEL-5 melanoma; 0.0288 µM and 0.0381 µM in the assay on M14 melanoma; 0.114 µM in the assay with KM12 colon; 0.147 µM and 0.486 µM in the assay on RPMI-8226 leukemia; 0.0334 µM and 0.146 µM in the assay with EKVX NSCLC; 0.0131 µM and 0.0549 µM in the assay with SNB-75 CNS. Besides, the TGI in the assay on HCC-2998 colon was 0.00372 µM and 0.0304 µM.
With `COc1cc(Nc2c(C#N)cnc3cc(OCCCN4CCN(C)CC4)c(OC)cc23)c(Cl)cc1Cl`, the GI50 was 2.09 µM in the assay on SK-MEL-5 melanoma; 1.3 µM in the assay on M14 melanoma; 0.331 µM in the assay with KM12 colon; 5.32 µM in the assay with RPMI-8226 leukemia; 2.48 µM in the assay with UACC-62 melanoma; 1.6 µM in the assay on COLO 205 colon. Also, the GI50 in the assay with SNB-75 CNS was 0.707 µM; with NCI-H460 lung, 3.99 µM; in the assay with HCC-2998 colon, 3.08 µM. Moreover, the TGI in the assay with SK-MEL-5 melanoma is 5.71 µM; in the assay with M14 melanoma it was 3.03 µM; in the assay with KM12 colon, 7.24 µM; in the assay on RPMI-8226 leukemia it was 13.9 µM; in the assay on UACC-62 melanoma it was 7.01 µM; in the assay on COLO 205 colon it was 3.03 µM. Moreover, the TGI in the assay with SNB-75 CNS was determined as 8.38 µM; with NCI-H460 lung it was 17.7 µM; in the assay on HCC-2998 colon, 9.21 µM.
For the molecule `CCn1cnc(C[C@H](NC(=O)[C@@H](NC(=O)Nc2cc(C(F)(F)F)cc(C(F)(F)F)c2)C(C)C)C(=O)OC)c1`, the GI50 in the assay with SK-MEL-5 melanoma was 4.31 µM; in the assay with M14 melanoma, 3.54 µM; in the assay with KM12 colon, 1.89 µM; with RPMI-8226 leukemia, 2.76 µM; in the assay on UACC-62 melanoma, 6.45 µM; in the assay on COLO 205 colon, 2.61 µM. In addition, the GI50 was 1.61 µM with SNB-75 CNS, 2.13 µM in the assay on NCI-H460 lung and 2.27 µM with HCC-2998 colon. Besides, the TGI with SK-MEL-5 melanoma is greater than 10 µM; in the assay with M14 melanoma, greater than 10 µM; with KM12 colon, 3.9 µM; in the assay with RPMI-8226 leukemia, 8.45 µM; in the assay on UACC-62 melanoma it was greater than 10 µM; in the assay on COLO 205 colon, 7.07 µM. In addition, the TGI was 6.82 µM in the assay on SNB-75 CNS, 4.43 µM with NCI-H460 lung and 5.32 µM in the assay with HCC-2998 colon.
Take `NC(=O)c1ccccc1Nc1ccc2nnc(-c3ccncc3)n2n1`: the GI50 in the assay with SK-MEL-5 melanoma was 4.74 µM; in the assay with M14 melanoma, 11.1 µM; in the assay with KM12 colon, 9.34 µM; in the assay with RPMI-8226 leukemia, 3.43 µM; in the assay on UACC-62 melanoma, 7.15 µM; in the assay with COLO 205 colon it was 11.6 µM. Moreover, the GI50 with SNB-75 CNS is 13.6 µM; in the assay on NCI-H460 lung, 4.44 µM; with HCC-2998 colon, 16.6 µM. Also, the TGI came out at 16.9 µM with SK-MEL-5 melanoma; 26.5 µM in the assay with M14 melanoma; 21.2 µM in the assay on KM12 colon; 17.4 µM in the assay with RPMI-8226 leukemia; 22.2 µM in the assay on UACC-62 melanoma; 26.7 µM in the assay on COLO 205 colon. Also, the TGI in the assay on SNB-75 CNS came out at 26.5 µM; in the assay with NCI-H460 lung, 16.9 µM; in the assay on HCC-2998 colon, 34.5 µM.
As to `Cc1ccc(-c2nc(C#N)c(S(=O)(=O)n3nc(C)cc3N)o2)cc1`, the GI50 in the assay with M14 melanoma was 3.35 µM; in the assay on KM12 colon, 16.5 µM; in the assay with RPMI-8226 leukemia, 3.07 µM; with UACC-62 melanoma, 6.32 µM; in the assay on COLO 205 colon, 2.15 µM; in the assay on EKVX NSCLC, 21.8 µM. Also, the GI50 was 13.7 µM with SNB-75 CNS, 19.5 µM in the assay on NCI-H460 lung and 19.5 µM in the assay on HCC-2998 colon. The TGI came out at 14.4 µM in the assay on M14 melanoma; 33.8 µM with KM12 colon; 10.1 µM in the assay on RPMI-8226 leukemia; 19.8 µM with UACC-62 melanoma; 4.19 µM in the assay on COLO 205 colon; 55 µM with EKVX NSCLC. The TGI in the assay on SNB-75 CNS amounted to 27.1 µM; in the assay with NCI-H460 lung, 41.5 µM; with HCC-2998 colon it was 38 µM.
Regarding `O=C(Nc1cccc(-n2cc(-c3ccncc3)c(-c3cc(O)cc(Cl)c3)n2)c1)Nc1ccc(Cl)c(C(F)(F)F)c1`, the GI50 in the assay on SK-MEL-5 melanoma was 1.69 µM; in the assay with M14 melanoma it was 1.72 µM; in the assay with KM12 colon, 2.59 µM; in the assay with RPMI-8226 leukemia it was 1.95 µM; in the assay on UACC-62 melanoma, 2.08 µM; in the assay on COLO 205 colon, 2.25 µM. The figures for the GI50 in the assay on SNB-75 CNS, in the assay with NCI-H460 lung and in the assay with HCC-2998 colon were 1.49 µM, 2.59 µM and 3.93 µM, respectively. The TGI in the assay on SK-MEL-5 melanoma amounted to 3.23 µM; in the assay with M14 melanoma, 3.85 µM; in the assay on KM12 colon, 9.86 µM; in the assay on RPMI-8226 leukemia, 5.09 µM; with UACC-62 melanoma, 4.38 µM; in the assay on COLO 205 colon it was 5.17 µM. The TGI in the assay on SNB-75 CNS worked out at 6.36 µM; in the assay on NCI-H460 lung, 7.37 µM; in the assay with HCC-2998 colon, 13.4 µM.
`C[C@]12CCC(=O)C=C1CC[C@@H]1C2CC[C@]2(C)Nc3c(cnn3-c3ccccc3)CC12` (some centres undefined): the TGI in the assay with SK-MEL-5 melanoma was greater than 100 µM; with M14 melanoma it was greater than 100 µM; with KM12 colon it was greater than 10 µM; in the assay on RPMI-8226 leukemia, greater than 100 µM; with UACC-62 melanoma, greater than 100 µM; in the assay on EKVX NSCLC it was greater than 100 µM. Besides, the TGI in the assay on SNB-75 CNS, in the assay with NCI-H460 lung and in the assay with HCC-2998 colon was greater than 100 µM in each case.
For `O=C(Nc1cccc(-n2cc(-c3ccncc3)c(-c3ccc(Cl)c(O)c3)n2)c1)c1ccc(N2CCOCC2)c(C(F)(F)F)c1`, the GI50 is 2.47 µM with SK-MEL-5 melanoma; 1.63 µM with M14 melanoma; 1.94 µM in the assay with KM12 colon; 1.4 µM in the assay on RPMI-8226 leukemia; 3.26 µM with UACC-62 melanoma; greater than 50 µM in the assay with COLO 205 colon. Also, the GI50 in the assay with SNB-75 CNS is 1.3 µM; in the assay with NCI-H460 lung, 1.72 µM; with HCC-2998 colon, 5.66 µM. The TGI in the assay on SK-MEL-5 melanoma was 10.2 µM; in the assay with M14 melanoma, 9.1 µM; in the assay on KM12 colon it was greater than 50 µM; in the assay on RPMI-8226 leukemia, 12.5 µM; with UACC-62 melanoma, 18.4 µM; in the assay on COLO 205 colon, greater than 50 µM. Besides, the figures for the TGI in the assay on SNB-75 CNS, in the assay with NCI-H460 lung and in the assay with HCC-2998 colon were greater than 50 µM, 14.8 µM and greater than 50 µM, respectively.
